Reference: paper PMC4383003, “Transfer hydrogenation catalysis in cells as a new approach to anticancer drug design” (Nature Communications, 2015)

Key:
[1] = test system: 9-ethylguanine; assay: Binding to model nucleobase 9-ethylguanine by 1H NMR; settings: D2O, pH* 7.2 ± 0.1, 310 K
Experimental: Supplementary Table 4: Binding constants for formation of 9-EtG adducts of complexes 1-4 determined by 1H NMR. The experiments were performed in D2O, pH* 7.2 ± 0.1 and 310 K. Equilibrium was reached by the time the first 1H NMR spectrum was recorded (< 10 min). […]
DNA is believed to be the main target for [(bip)Ru(en)Cl]+ (8). Due to the structural similarity of the complexes 1-5 with complex 8, their binding to DNA was […]
Interaction with nucleobases
Initially, model nucleobases, 9-ethylguanine and 9-methyladenine were reacted with complexes 1-4 in D2O, 310 K and pH* 7.2 ± 0.1. The binding of the complexes to 9-EtG or 9-MeA was monitored by 1H-NMR spectroscopy. Peaks for the 9-EtG adducts were observed by the time the first spectrum was recorded (< 5 min after mixing), […]
equilibrium was reached rapidly. The binding constants for formation of 9-EtG adducts determined by NMR were between 60 and 106 mM-1 (Supplementary Table 4). These values are in the same range as that from the ethylenediamine complex [(bip)Ru(en)Cl]+ (K9-EtG= 60.3 mM-1),2 which also binds strongly to DNA.3, 4 The high resolution mass spectrum confirmed the formation of [(η6-arene)Ru(XEn)(9-EtG)]+ (Supplementary Table 5). The interaction of complexes 1-4 with 9-MeA was also investigated, but no reaction was detected by 1H-NMR.
It is well established that N7 of guanine is the preferred nucleotide binding site for many transition metals ions. 2-8 Furthermore, strong and selective binding to N7 of 9-EtG, has been observed for [(η6-arene)Ru(en)Cl]+.3, 4 A pH* titration of […]

[2] = test system: A2780 cells; assay: Mitochondrial membrane assay (JC-10 flow cytometry); type: cell-based, human; settings: A2780, complex 2 and sodium formate, 24 h
Experimental: Analysis of the changes of mitochondrial potential in A2780 cells after exposure to complex 2 and sodium formate was carried out using the Abcam, JC-10 Mitochondrial Membrane Potential Assay kit according to the manufacturer’s instructions. Briefly, 1.0 × 10^6 cells were seeded in six-well plates and left to incubate for 24 h in drug-free medium at 310 K in a humidified atmosphere. […] Supernatants were removed by suction and each well was washed with PBS before detaching the cells using trypsin-EDTA. Staining of the samples was done in flow cytometry tubes protected from light, incubating for 30 min at room temperature. Samples were immediately analysed on a Beckton Dickinson FAC Scan with fluorescence detection. Data were processed using FlowJo software. This experiment included carbonyl cyanide m-chlorophenyl hydrazine as positive control.

[3] = test system: CT-DNA; assay: Circular dichroism of CT-DNA; type: binding, calf; settings: different concentrations of complex 2
Experimental: Supplementary Figure 4: Circular dichroism spectra of CT-DNA (1 mM) in red and CT-DNA (1 mM)/complex 2 (mol ratio 3:1) in black. Spectra were recorded under the same conditions, using (A) cacodylate buffer (2 mM, pH 7.4) and NaCl (20 mM) at 298 K, (B) PBS buffer (2 mM, pH 7.4) and NaCl (20 mM).
(1 picture or pasted object on this page, not shown here) […]
the nucleobases.11 Destabilization of DNA can result in a decrease of the melting […]
In the presence of complex 8, the melting temperature of CT-DNA increased In agreement with the literature, 12 by 14 K, in 2 mM NaCl, 2 mM cacodylate buffer.
This increase is due to Ru binding to DNA as well as intercalation. 12 However, upon increasing the chloride concentration by ca. 10x (20 mM NaCl) the melting temperature of CT-DNA in the presence of complex 8, increased only by 7 K. This effect has previously been reported and it is attributed to the partial inhibition of hydrolysis, and, therefore, inhibition of coordination to DNA. 12, 13
Experiments performed in the presence of complex 2, in 2 mM cacodylate buffer and […]
NaCl, no decrease of the melting temperature was observed. These experiments […]
Furthermore, strong binding to DNA can induce chirality in the metal complex, generating a CD signal. 14 CD spectra of CT-DNA in the presence of different concentrations of complex 2 were recorded (Supplementary Figure 4). […]

[4] = test system: MRC5 human fetal lung fibroblasts; assay: In vitro growth inhibition assay (SRB), MRC5; type: cell-based
Experimental: A2780 human ovarian carcinoma and MRC5 human fetal lung fibroblasts were obtained from the European Collection of Cell Cultures. Both cell lines were grown in Roswell Park Memorial Institute medium (RPMI-1640) supplemented with 10% of fetal calf serum, 1% of 2 mM glutamine and 1% penicillin/streptomycin. All cells were grown as adherent monolayers at 310 K in a 5% CO2-humidified atmosphere and passaged at ca. 70–80% confluency.
The antiproliferative activity of complexes 1–8 was determined in A2780 ovarian cancer cells and MRC5 fibroblasts. Briefly, 96-well plates were used to seed 5,000 cells per well. The plates were left to pre-incubate with drug-free medium at 310 K for 48 h before adding different concentrations of the compounds to be tested. A drug exposure period of 24 h was allowed. After this, supernatants were removed by suction and each well was washed with PBS. […]
Supplementary Table 10: Antiproliferative activity of complex 2 in A2780 ovarian cancer cells and normal MRC5 human fetal lung fibroblasts, when co-administered with different concentrations of sodium formate (0 and 2 mM). All the experiments were performed as duplicates of triplicates in independent experiments and the error bars were calculated as the standard deviation from the mean. […]

Cc1ccc(C(C)C)cc1.Cc1ccc(S(=O)(=O)[N-]CCN)cc1.[Cl-].[Ru+2] [Complex 2, [(p-cym)Ru(TsEn)Cl]]
Binding constant for formation of 9-EtG adducts [1]: 104.9 ± 3.9 mM⁻¹
changes in mitochondrial membrane potential [2]: No changes in the mitochondrial membrane potential were observed
changes in CD spectra of CT-DNA [3]: No changes
IC50 ([4]; MRC5, formate 0 mM): 48.5 ± 0.4 µM
selectivity factor ([4]; ratio MRC5 fibroblasts / A2780, no formate): 3.6±0.2
